Tested on: not given
Assay: not given
Settings: not given

| Compound | melting point |
| --- | --- |
| NC(=O)c1sc2nccc(N3CCCN(Cc4ccccc4)CC3)c2c1N [Example 56, 3-amino-4-(4-benzyl-1,4-diazepan-1-yl)thieno[2,3-b]pyridine-2-carboxamide] | 194 to 195 °C |
| NC(=O)c1sc2nccc(N3CCCN(c4ccc(Cl)cc4)CC3)c2c1N [Example 60, 3-amino-4-[4-(4-chlorophenyl)-1,4-diazepan-1-yl]thieno[2,3-b]pyridine-2-carboxamide] | 92 to 96 °C |
| NC(=O)c1sc2nccc(N3CCCN(c4ccccc4Cl)CC3)c2c1N [Example 61, 3-amino-4-[4-(2-chlorophenyl)-1,4-diazepan-1-yl]thieno[2,3-b]pyridine-2-carboxamide] | 206 to 210 °C |
| N#Cc1ccc(N2CCCN(c3ccnc4sc(C(N)=O)c(N)c34)CC2)cc1 [Example 62, 3-amino-4-[4-(4-cyanophenyl)-1,4-diazepan-1-yl]thieno[2,3-b]pyridine-2-carboxamide] | 151 to 153 °C |
| NC(=O)c1sc2nccc(N3CCCN(c4ccc(C(F)(F)F)cc4)CC3)c2c1N [Example 63, 3-amino-4-[4-(4-trifluoromethylphenyl)-1,4-diazepan-1-yl]thieno[2,3-b]pyridine-2-carboxamide] | 204 to 208 °C |
| COc1ccccc1N1CCCN(c2ccnc3sc(C(N)=O)c(N)c23)CC1 [Example 67, 3-amino-4-[4-(2-methoxyphenyl)-1,4-diazepan-1-yl]thieno[2,3-b]pyridine-2-carboxamide] | 179 to 184 °C |
| Cc1cc(N2CCCN(c3ccnc4sc(C(N)=O)c(N)c34)CC2)ccc1F [Example 69, 3-amino-4-[4-(4-fluoro-3-methylphenyl)-1,4-diazepan-1-yl]thieno[2,3-b]pyridine-2-carboxamide] | 194 to 197 °C |
| Cc1ccccc1N1CCCN(c2ccnc3sc(C(N)=O)c(N)c23)CC1 [Example 70, 3-amino-4-[4-(2-toluyl)-1,4-diazepan-1-yl]thieno[2,3-b]pyridine-2-carboxamide] | 206 to 209 °C (dec.) |
| Cc1ccc(N2CCCN(c3ccnc4sc(C(N)=O)c(N)c34)CC2)cc1F [Example 71, 3-amino-4-[4-(3-fluoro-4-methylphenyl)-1,4-diazepan-1-yl]thieno[2,3-b]pyridine-2-carboxamide] | 79 to 83 °C |
| Cc1cc(N2CCN(c3ccccc3)CC2)c2c(N)c(C(N)=O)sc2n1 [Example 75, 3-amino-6-methyl-4-(4-phenylpiperazin-1-yl)thieno[2,3-b]pyridine-2-carboxamide] | 247 to 250 °C |
| NC(=O)c1sc2nccc(N3CCCN(c4cccc(Cl)c4)CC3)c2c1N [Example 78, 3-amino-4-[4-(3-chlorophenyl)-1,4-diazepan-1-yl]thieno[2,3-b]pyridine-2-carboxamide] | 213 to 215 °C |
| NC(=O)c1sc2nccc(N3CCCN(c4ccc(OCc5ccccc5)cc4)CC3)c2c1N [Example 79, 3-amino-4-{4-[4-(benzyloxy)phenyl]-1,4-diazepan-1-yl}thieno[2,3-b]pyridine-2-carboxamide] | 211 to 213 °C |
| NC(=O)c1sc2nccc(N3CCCN(c4cccc([N+](=O)[O-])c4)CC3)c2c1N [Example 80, 3-amino-4-[4-(3-nitrophenyl)-1,4-diazepan-1-yl]thieno[2,3-b]pyridine-2-carboxamide] | 180 to 185 °C |
| NC(=O)c1sc2nccc(N3CCCN(c4ccc(F)c(Cl)c4)CC3)c2c1N [Example 81, 3-amino-4-[4-(3-chloro-4-fluorophenyl)-1,4-diazepan-1-yl]thieno[2,3-b]pyridine-2-carboxamide] | 181 to 184 °C |
| NC(=O)c1sc2nccc(N3CCCN(c4ccc(Br)cc4)CC3)c2c1N [Example 82, 3-amino-4-[4-(4-bromophenyl)-1,4-diazepan-1-yl]thieno[2,3-b]pyridine-2-carboxamide] | 170 to 173 °C |
| NC(=O)c1sc2nccc(N3CCCN(c4cccc(C(F)(F)F)c4)CC3)c2c1N [Example 86, 3-amino-4-{4-[3-(trifluoromethyl)phenyl]-1,4-diazepan-1-yl}thieno[2,3-b]pyridine-2-carboxamide] | 195 to 197 °C |
| NC(=O)c1sc2nccc(N3CCCN(c4ccc(OC(F)(F)F)cc4)CC3)c2c1N [Example 87, 3-amino-4-{4-[4-(trifluoromethoxy)phenyl]-1,4-diazepan-1-yl}thieno[2,3-b]pyridine-2-carboxamide] | 163 to 165 °C |
| NC(=O)c1sc2nccc(N3CCCN(c4c(F)c(F)nc(F)c4F)CC3)c2c1N [Example 88, 3-amino-4-[4-(2,3,5,6-tetrafluoropyridin-4-yl)-1,4-diazepan-1-yl]thieno[2,3-b]pyridine-2-carboxamide] | 228 to 231 °C |
| NC(=O)c1sc2nccc(N3CCCN(c4ncnc5ccccc45)CC3)c2c1N [Example 89, 3-amino-4-(4-quinazolin-4-yl-1,4-diazepan-1-yl)thieno[2,3-b]pyridine-2-carboxamide] | 228 to 231 °C |
| Cc1ccc(N2CCCN(c3ccnc4sc(C(N)=O)c(N)c34)CC2)cc1[N+](=O)[O-] [Example 90, 3-amino-4-[4-(4-methyl-3-nitrophenyl)-1,4-diazepan-1-yl]thieno[2,3-b]pyridine-2-carboxamide] | 114 to 117 °C |
| CC(C)(C)c1ccc(N2CCCN(c3ccnc4sc(C(N)=O)c(N)c34)CC2)cc1 [Example 92, 3-amino-4-[4-(4-tert-butylphenyl)-1,4-diazepan-1-yl]thieno[2,3-b]pyridine-2-carboxamide] | 231 to 232 °C |

Further lines, results first:

| melting point | Compound |
| --- | --- |
| 215 to 217 °C | Cc1cccc(N2CCN(c3ccnc4sc(C(N)=O)c(N)c34)CC2C)c1 (stereo not shown) [Example 95, 3-amino-4-[3-methyl-4-(3-methylphenyl)piperazin-1-yl]thieno[2,3-b]pyridine-2-carboxamide] |
| 288 to 291 °C (dec.) | NC(=O)c1sc2nccc(N3CCCN(c4ccncc4)CC3)c2c1N [Example 100, 3-amino-4-(4-pyridin-4-yl-1,4-diazepan-1-yl)thieno[2,3-b]pyridine-2-carboxamide] |
| 214 to 215 °C | CC(=O)N1CCCN(c2ccnc3sc(C(N)=O)c(N)c23)CC1 [Example 103, 4-(4-acetyl-1,4-diazepan-1-yl)-3-aminothieno[2,3-b]pyridine-2-carboxamide] |
| 214 to 217 °C | CS(=O)(=O)N1CCCN(c2ccnc3sc(C(N)=O)c(N)c23)CC1 [Example 104, 3-amino-4-[4-(methylsulfonyl)-1,4-diazepan-1-yl]thieno[2,3-b]pyridine-2-carboxamide] |
| 232 to 234 °C | NC(=O)c1sc2nccc(N3CCCN(c4ccc(Cl)nn4)CC3)c2c1N [Example 105, 3-amino-4-[4-(6-chloropyridazin-3-yl)-1,4-diazepan-1-yl]thieno[2,3-b]pyridine-2-carboxamide] |
| 238 to 241 °C | COc1ccnc2sc(C(N)=O)c(N)c12 [Example 107, 3-amino-4-methoxythieno[2,3-b]pyridine-2-carboxamide] |
| 241 to 243 °C | CCOc1ccnc2sc(C(N)=O)c(N)c12 [Example 108, 3-amino-4-ethoxythieno[2,3-b]pyridine-2-carboxamide] |
| 216 to 221 °C | NC(=O)c1sc2nccc(OCc3ccccc3)c2c1N [Example 110, 3-amino-4-(benzyloxy)thieno[2,3-b]pyridine-2-carboxamide] |
| 238 to 240 °C (dec.) | CC(C)Oc1ccnc2sc(C(N)=O)c(N)c12 [Example 111, 3-amino-4-isopropoxythieno[2,3-b]pyridine-2-carboxamide] |
| 179 to 180 °C | NC(=O)c1sc2nccc(OC3CCCCCC3)c2c1N [Example 112, 3-amino-4-(cycloheptyloxy)thieno[2,3-b]pyridine-2-carboxamide] |
| 230 to 235 °C | CCSc1ccnc2sc(C(N)=O)c(N)c12 [Example 114, 3-amino-4-(ethylthio)thieno[2,3-b]pyridine-2-carboxamide] |
| 195 to 197 °C | NC(=O)c1sc2nccc(SC3CCCCC3)c2c1N [Example 115, 3-amino-4-(cyclohexylthio)thieno[2,3-b]pyridine-2-carboxamide] |

Tested on: ST2 cells
Assay: Osteoblast differentiation test (alkaline phosphatase activity)
Type: cell-based
Settings: Mus musculus, ST-2, 96 h; at 0.03 μg/mL; culturing for four days; control group (0.1% DMSO) = 100%; read-out: alkaline phosphatase activity increase rate
Procedure: ST2 cells (available from Institute of Physical and Chemical Research) which are stroma cells derived from mouse marrow were used. In this test, α-MEM medium (available from GIBCO BRL Cat. No. 10370-021) with which 10% (v/v) inactivated fetal bovine serum (available from Hyclone Company, FBS) and 1% (v/v) Penicillin-Streptomycin, Liquid (available from GIBCO BRL Cat. No. 15140-122) are mixed (hereinbelow abbreviated as 10% -FBS-αMEM) was used. Every culture in this test was conducted in a CO2 incubator (37° C., 95% humidity, 5% CO2).
The cells mentioned above were harvested with 2 mL of 0.25% trypsin solution (available from GIBCO BRL Cat. No. 15050-065) and after they were dispersed by adding 10 mL of 10% -FBS-αMEM, the cells were collected by centrifugal separation (25° C., 800 rpm, 5 minutes). A cell suspension containing 40,000 cells/mL was prepared from the collected cells using 10% -FBS-αMEM.
The cell suspension was dispensed to the wells of a 96 well microplate (Falcon company) in an amount of 100 μL per well so as to achieve 4,000 cells/well and cultured for 24 hours. Compounds were dispensed to the wells in final concentrations of 0.01, 0.03, 0.1, 0.3 μg/ml except the following control group. DMSO was dispensed to the wells of the control group in a final concentration of 0.1% (v/v). Alkaline phosphatase (ALP) activity was measured for each group after culturing for four days.
The measurement of ALP activity was performed as follows. That is, after the whole medium was removed from each well of the culturing plate, each well was washed twice by dispensing and removing 100 μL of Dulbecco's phosphate buffer (available from GIBCO BRL Cat. No. 14190-144). Cell lysing solution containing 10 mM MgCl2 and 2%(v/v) TritonX-100 (Sigma company) was prepared and 50 μL/well of the cell lysing solution was dispensed and the mixture was stirred at room temperature for five minutes. An ALP substrate solution containing 50 mM of diethanolamine (Wako Pure Chemical Industries, Ltd. Cat. No. 099-03112) and 20 mM of […] (Wako Pure Chemical Industries, Ltd. Cat. No. 147-02343) was prepared and 50 μL/well of the ALP substrate solution was dispensed and after allowing to stand at room temperature for 10 minutes, absorbance was measured using a microplate reader (Bio-rad company). Alkaline phosphatase activity increase rate (%) in the group blended with test compounds was calculated assuming the observed value of the control group of each plate to be 100% and evaluated as the osteoblast differentiation promoting activity.

| Compound | activity at 0.03 µg/mL |
| --- | --- |
| NC(=O)c1sc2nccc(N3CCCN(c4cccnc4)CC3)c2c1N [Example 96, 3-amino-4-(4-pyridin-3-yl-1,4-diazepan-1-yl)thieno[2,3-b]pyridine-2-carboxamide] | > 150% |

Source: patent US20070219234A1, “Thienopyridine Derivatives” (priority 2004, published 2007)
